Assay [1] addresses Recombinant human Cbl-b (aa 36-427) (Homo sapiens (Human), UniProt Q13191). Nature of the assay: Cbl-b Biochemical Assay (TR-FRET). The settings on record: read-out: TR-FRET hCbl-b IC50. The method in brief: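 IC50 from 4-parameter fit of % inhibition (DMSO max, reference-inhibitor min), duplicate ten-point series. Compound preincubated with 6 nM Cbl-b, then Src-Zap70 (1-2.5 nM)/0.5 mM ATP reaction 60 min RT; EDTA quench with labelled UBE2D2-Ub and streptavidin-terbium, 60 min, HTRF at 520 nm.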

Assay [2] has as its target Recombinant human c-Cbl (aa 47-435) (Homo sapiens (Human), UniProt P22681). Nature of the assay: c-Cbl Biochemical Assay (TR-FRET). The procedure: Recombinant human c-Cbl (aa 47-435) was expressed in E. coli, purified and biotinylated in vitro. The protein was diluted to 12 nM in freshly prepared assay buffer consisting of 50 mM HEPES, pH 7.0, 100 mM NaCl, 5 mM MgCl2, 0.01% Triton-X 100, 0.01% BSA and 1 mM DTT. Recombinant human Src (aa 254-536)-[…]-Zap-70 (aa 281-297) fusion protein was expressed in E. coli and purified. Protein was diluted in assay buffer to 5-20 nM and ATP was added to 1 mM. Recombinant human UBE2D2([…]) was expressed in E. coli, purified and ubiquitinated and Bodipy labelled in vitro. Protein was diluted to 200 nM in assay buffer without MgCl2 (or Cisbio PPI buffer). Streptavidin-Terbium was added to 2 nM and EDTA to 10 mM, to provide a binding assay mix. Compounds were dissolved in DMSO and diluted to prepare a ten-point half log dilution series. 100 nl of each compound concentration was dispensed in duplicate in a 384 well black assay plate using acoustic dispensing. Wells for maximum signal controls received 100 nl of DMSO only and wells for minimum controls received 100 nl of a reference inhibitor compound at a final assay concentration of […] to produce 100% inhibition. 5 μl of diluted c-cbl enzyme was added to all wells of the assay plate and incubated at RT for 30 min. The enzyme assay was initiated by addition of 5 μl of Src-Zap/ATP mix to all wells, and the plate incubated at RT for 60-90 min. The enzyme reaction was terminated and the binding reaction was initiated by adding 10 μl of binding assay mix to all wells and incubating the plate at RT for 60 min prior to assay read. Final assay conditions consisted of 6 nM c-cbl, 2.5-10 nM Src-Zap70, 0.5 mM ATP, 1% (v/v) DMSO (enzyme reaction) and 100 nM UBE2D2([…])-Ub-FL-BODIPY, 5 mM EDTA, 1 nM Streptavidin-Tb (binding reaction). The HTRF assay signal was measured at 520 nm on an Envision plate reader, with reference signal at 485 or 620 nm. Data was normalized using maximum and minimum assay controls: % Inhibition=100-(100*((maximum control)-unknown)/(maximum control-minimum control)). A 4-parameter dose-response equation was used to fit the normalized dose-response data and derive an IC50 for test compounds.

Results on 19 compounds are retold here after patent US12325697B2 (Nimbus Clio, Inc., priority 2021, dated 2025).

The structures appear in SMILES notation. Where only a bound is given, the exact number is not on record here.

Recombinant human Cbl-b (aa 36-427), sequence (Q13191 36-427): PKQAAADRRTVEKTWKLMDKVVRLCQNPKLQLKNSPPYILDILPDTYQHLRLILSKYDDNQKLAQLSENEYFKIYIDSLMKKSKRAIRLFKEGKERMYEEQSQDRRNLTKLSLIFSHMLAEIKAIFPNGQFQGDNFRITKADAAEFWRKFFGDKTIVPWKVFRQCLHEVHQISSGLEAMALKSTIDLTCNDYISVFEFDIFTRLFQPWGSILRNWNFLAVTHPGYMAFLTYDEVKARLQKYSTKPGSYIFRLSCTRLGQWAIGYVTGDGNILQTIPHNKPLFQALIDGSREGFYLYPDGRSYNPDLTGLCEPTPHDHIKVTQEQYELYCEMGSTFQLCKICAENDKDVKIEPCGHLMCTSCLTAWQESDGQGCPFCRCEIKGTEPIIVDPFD
Recombinant human c-Cbl (aa 47-435), sequence (P22681 47-435): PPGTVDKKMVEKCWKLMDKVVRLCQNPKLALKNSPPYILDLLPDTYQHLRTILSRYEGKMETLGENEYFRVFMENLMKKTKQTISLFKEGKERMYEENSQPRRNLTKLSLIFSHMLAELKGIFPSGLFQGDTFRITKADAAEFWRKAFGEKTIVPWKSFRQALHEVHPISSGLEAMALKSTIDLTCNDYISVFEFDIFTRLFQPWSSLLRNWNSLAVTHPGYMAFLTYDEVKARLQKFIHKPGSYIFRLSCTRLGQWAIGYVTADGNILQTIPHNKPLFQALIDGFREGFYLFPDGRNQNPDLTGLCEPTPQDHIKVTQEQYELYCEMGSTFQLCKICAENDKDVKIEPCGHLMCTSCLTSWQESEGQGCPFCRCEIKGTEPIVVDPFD

For the compound `Cn1cnnc1-c1cc(C#N)ccc1-c1cc(C2CC2)nc(N2Cc3c(F)cc(CN[C@]4(C)COC[C@@H]4O)cc3C2=O)c1` (relative stereo) [AOH-1, rel-4-{2-Cyclopropyl-6-[4-fluoro-6-({[(3R,4R)-4-hydroxy-3-methyloxolan-3-yl]amino}methyl)-1-oxo-3H-isoindol-2-yl]pyridin-4-yl}-3-(4-methyl-1,2,4-triazol-3-yl)benzonitrile], the IC50 in assay [1] and in assay [2] was no more than 200 nM throughout.
As to `Cn1cnnc1-c1cc(C#N)ccc1-c1cc(C2CC2)nc(N2Cc3c(F)cc(CN4CC[C@@H]5OCC[C@@H]54)cc3C2=O)c1` (single isomer, unassigned) [ANG-1], the IC50 in assay [1] and in assay [2] was no more than 200 nM throughout.
With `Cn1cnnc1-c1cc(C#N)ccc1-c1cc(C2CC2)nc(N2Cc3c(F)cc(CN4CC[C@H]5OCC[C@H]54)cc3C2=O)c1` (single isomer, unassigned) [ANH-1], the IC50 in assay [1] and in assay [2] was no more than 200 nM throughout.
On to `Cn1cnnc1-c1cc(C#N)ccc1-c1cc(C2CC2)nc(N2Cc3c(F)cc(CN4CC[C@H]5OCC[C@H]54)cc3C2=O)c1` (stereo in doubt) [ANF-11, 4-[2-Cyclopropyl-6-(4-fluoro-6-{hexahydrofuro[3,2-b]pyrrol-4-ylmethyl}-1-oxo-3H-isoindol-2-yl)pyridin-4-yl]-3-(4-methyl-1,2,4-triazol-3-yl)benzonitrile], for which the 50% inhibitory concentration (IC50) in assay [1] and in assay [2] was no more than 200 nM in each case.
As to `Cn1cnnc1-c1cc(C#N)ccc1-c1cc(C2CC2)nc(N2Cc3ccc(CNC4CCOC4)cc3C2=O)c1` (stereo in doubt) [ANP-2, 4-[2-Cyclopropyl-6-(1-oxo-6-{[(3S)-oxolan-3-ylamino]methyl}-3H-isoindol-2-yl)pyridin-4-yl]-3-(4-methyl-1,2,4-triazol-3-yl)benzonitrile], the IC50 in assay [1] and in assay [2] was no more than 200 nM each time.
Take `Cn1cnnc1-c1cc(C#N)ccc1-c1cc(C2CC2)nc(N2Cc3c(F)cc(CN[C@]4(C)COC[C@@H]4O)cc3C2=O)c1` (stereo in doubt) [AOF-9, 4-[2-Cyclopropyl-6-(4-fluoro-6-{[(4-hydroxy-3-methyloxolan-3-yl)amino]methyl}-1-oxo-3H-isoindol-2-yl)pyridin-4-yl]-3-(4-methyl-1,2,4-triazol-3-yl)benzonitrile]: the IC50 in assay [1] and in assay [2] was less than 200 nM throughout.
Take `Cn1cnnc1-c1cc(C#N)ccc1-c1cc(C2CC2)nc(N2Cc3c(F)cc(CN[C@@]4(C)COC[C@H]4O)cc3C2=O)c1` (stereo in doubt) [AOG-1, 4-[2-Cyclopropyl-6-(4-fluoro-6-{[(4-hydroxy-3-methyloxolan-3-yl)amino]methyl}-1-oxo-3H-isoindol-2-yl)pyridin-4-yl]-3-(4-methyl-1,2,4-triazol-3-yl)benzonitrile]: the half-inhibitory concentration (IC50) in assay [1] and in assay [2] was no more than 200 nM each time.
With `Cn1cnnc1-c1cc(C#N)ccc1-c1cc(C2CC2)nc(N2Cc3ccc([C@H]4COC[C@@H](C5CCC5)N4)cc3C2=O)c1` (stereo in doubt) [AOP-4, rac-4-(2-{6-[(3R,5S)-5-Cyclobutylmorpholin-3-yl]-1-oxo-3H-isoindol-2-yl}-6-cyclopropylpyridin-4-yl)-3-(4-methyl-1,2,4-triazol-3-yl)benzonitrile], the IC50 in assay [1] and in assay [2] was no more than 200 nM throughout.
As to `Cn1cnnc1-c1cc(C#N)ccc1-c1cc(C2CC2)nc(N2Cc3ccc([C@@H]4COC[C@H](C5CCC5)N4)cc3C2=O)c1` (stereo in doubt) [AOQ-1, rel-4-(2-{6-[(3R,5S)-5-Cyclobutylmorpholin-3-yl]-1-oxo-3H-isoindol-2-yl}-6-cyclopropylpyridin-4-yl)-3-(4-methyl-1,2,4-triazol-3-yl)benzonitrile], the IC50 in assay [1] and in assay [2] was no more than 200 nM each time.
For `Cn1cnnc1-c1cc(C#N)ccc1-c1cc(C2CC2)nc(N2Cc3ccc([C@H]4COC[C@@H](C5CCC5)N4)cc3C2=O)c1` (stereo in doubt) [AOR-1, rel-4-(2-{6-[(3R,5S)-5-Cyclobutylmorpholin-3-yl]-1-oxo-3H-isoindol-2-yl}-6-cyclopropylpyridin-4-yl)-3-(4-methyl-1,2,4-triazol-3-yl)benzonitrile], the IC50 in assay [1] and in assay [2] was no more than 200 nM in each case.
Turning to `CCOc1cc(-c2ccc(F)cc2-c2nncn2C)cc(N2Cc3ccc(CO)cc3C2=O)n1` [ANS-1], in assay [2], the IC50 is 200 to 1000 nM.
Take `Cn1cnnc1-c1ccccc1-c1cccc(N2Cc3c(cc(CO)cc3C(F)(F)F)C2=O)c1` [Example P-2, 6-(Hydroxymethyl)-2-(2′-(4-methyl-4H-1,2,4-triazol-3-yl)-[1,1′-biphenyl]-3-yl)-4-(trifluoromethyl)isoindolin-1-one]: the IC50 in assay [1] is 200 to 1000 nM.
Same read-out and setting: the value for `C[C@H]1CCCN(Cc2cc3c(c(C(F)(F)F)c2)CN(c2cccc(-c4ccccc4-c4nncn4C)c2)C3=O)C1` [Example R-2, (S)-2-(2′-(4-Methyl-4H-1,2,4-triazol-3-yl)-[1,1′-biphenyl]-3-yl)-6-((3-methylpiperidin-1-yl)methyl)-4-(trifluoromethyl)isoindolin-1-one] was no more than 200 nM; that for `C[C@@H]1CCCN(Cc2cc3c(c(C(F)(F)F)c2)CN(c2cccc(-c4ccccc4-c4nncn4C)c2)C3=O)C1` [Example S-2, (R)-2-(2′-(4-Methyl-4H-1,2,4-triazol-3-yl)-[1,1′-biphenyl]-3-yl)-6-((3-methylpiperidin-1-yl)methyl)-4-(trifluoromethyl)isoindolin-1-one] was 200 to 1000 nM; that for `Cn1cnnc1-c1ccccc1-c1cccc(N2Cc3c(cc(CN[C@H]4CCC[C@@H]4O)cc3C(F)(F)F)C2=O)c1` [Example T-2, 6-((((1S,2S)-2-Hydroxycyclopentyl)amino)methyl)-2-(2′-(4-methyl-4H-1,2,4-triazol-3-yl)-[1,1′-biphenyl]-3-yl)-4-(trifluoromethyl)isoindolin-1-one] was no more than 200 nM.
Regarding `Cn1cnnc1-c1ccccc1-c1cccc(N2Cc3c(cc(CN4CC[C@H](F)C4)cc3C(F)(F)F)C2=O)c1` [Example V-2, (S)-6-((3-Fluoropyrrolidin-1-yl)methyl)-2-(2′-(4-methyl-4H-1,2,4-triazol-3-yl)-[1,1′-biphenyl]-3-yl)-4-(trifluoromethyl)isoindolin-1-one], the concentration for half-maximal inhibition (IC50) in assay [1] was no more than 200 nM.
The same measure, in the same setting: the value for `Cn1cnnc1-c1ccccc1-c1cccc(N2Cc3c(cc(CN[C@@H]4CCC[C@H]4O)cc3C(F)(F)F)C2=O)c1` [Example W-2, 6-((((1R,2R)-2-Hydroxycyclopentyl)amino)methyl)-2-(2′-(4-methyl-4H-1,2,4-triazol-3-yl)-[1,1′-biphenyl]-3-yl)-4-(trifluoromethyl)isoindolin-1-one] was no more than 200 nM.
Turning to `C[C@@H]1CN(Cc2cc3c(c(C(F)(F)F)c2)CN(c2cccc(-c4ccccc4-c4nncn4C)c2)C3=O)CCO1` [Example X-2, (R)-2-(2′-(4-Methyl-4H-1,2,4-triazol-3-yl)-[1,1′-biphenyl]-3-yl)-6-((2-methylmorpholino)methyl)-4-(trifluoromethyl)isoindolin-1-one], the IC50 in assay [1] was no more than 200 nM.
On the same count and under the same terms, as for `Cn1cnnc1-c1ccccc1-c1cccc(N2Cc3c(cc(CN4CC[C@@H](F)C4)cc3C(F)(F)F)C2=O)c1` [Example Y-2, (R)-6-((3-Fluoropyrrolidin-1-yl)methyl)-2-(2′-(4-methyl-4H-1,2,4-triazol-3-yl)-[1,1′-biphenyl]-3-yl)-4-(trifluoromethyl)isoindolin-1-one], the figure is 200 to 1000 nM.
